Laboratory results reported in patent US20260250318A1, “COMPOSITIONS AND METHODS FOR CROSSING THE BLOOD BRAIN BARRIER” (VOYAGER THERAPEUTICS, INC., priority 2022, published 2026).

Tests used:
[1] = system: brains, heart, liver, muscle, and DRG of the NHPs; assay: Maturation of TTM-001 and TTM-002 capsids, NGS enrichment in NHP tissues; assay type: in vivo; conditions: relative to AAV9 control
Method in brief: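 Variants carry mutations within and flanking the loop IV peptide insert: positions 450–466 were triplet-randomized, while positions 449–466 received low-frequency point mutations. The combined pool went into two NHPs, and each peptide was scored by NGS enrichment ratio against AAV9.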

[2] = system: brain; assay: Matured TTM-001 and TTM-002 variants, NGS enrichment in mouse brain; assay type: in vivo, mice; conditions: relative to AAV9 control
[3] = NGS fold-enrichment of matured AAV capsid variants, NHP brain, RNA
[4] = NGS fold-enrichment, DRG of NHPs
[5] = NGS fold-enrichment, RNA, brain of NHPs
[6] = NGS fold-enrichment, heart of NHPs
[7] = NGS fold-enrichment, liver DNA of NHPs
[8] = NGS fold-enrichment, liver RNA of NHPs
[9] = NGS fold-enrichment, muscle of NHPs
[10] = NGS fold-enrichment, brain of mice
[11] = NGS fold-enrichment of RNA, NHP brain
[12] = NGS fold-enrichment, NHP liver DNA
[13] = NGS fold-enrichment, NHP liver RNA
[14] = NGS fold-enrichment, NHP muscle
[15] = NGS fold-enrichment, mouse brain

Row | Sequence | Fold Enrichment relative to AAV9, Brain (NHP) [1, 11] [fold] | Fold Enrichment relative to AAV9, DRG (NHP) ([1]; NGS fold-enrichment, NHP DRG) [fold] | Fold Enrichment relative to AAV9, Heart (NHP) ([1]; NGS fold-enrichment, NHP heart) [fold] | Fold Enrichment relative to AAV9, Liver DNA (NHP) [1, 12] [fold] | Fold Enrichment relative to AAV9, Liver RNA (NHP) [1, 13] [fold] | Fold Enrichment relative to AAV9, Muscle (NHP) [1, 14] [fold] | Fold Enrichment relative to AAV9, Brain (Mouse) [2, 15] [fold] | further results
1 | KTINGGGSPHSKAQRQQT | – | – | – | – | – | – | – | Fold Enrichment relative to AAV9, Brain (NHP) [1, 3]: 50.998 fold; Fold Enrichment relative to AAV9, DRG (NHP) ([1]; NHP DRG): 0.000 fold; Fold Enrichment relative to AAV9, Heart (NHP) ([1]; NHP heart): 0.041 fold; Fold Enrichment relative to AAV9, Liver DNA (NHP) ([1]; NHP liver, DNA): 0.142 fold; Fold Enrichment relative to AAV9, Liver RNA (NHP) ([1]; NHP liver, RNA): 0.991 fold; Fold Enrichment relative to AAV9, Muscle (NHP) ([1]; NHP muscle): 0.000 fold; Fold Enrichment relative to AAV9, Brain (Mouse) ([2]; mouse brain): 147.942 fold
2 | KTINGGGSPHSKAQSQQI | – | – | – | – | – | – | – | Fold Enrichment relative to AAV9, DRG (NHP) [1, 4]: 0.000 fold; Fold Enrichment relative to AAV9, Brain (NHP) [1, 5]: 74.264 fold; Fold Enrichment relative to AAV9, Heart (NHP) [1, 6]: 0.000 fold; Fold Enrichment relative to AAV9, Liver DNA (NHP) [1, 7]: 0.235 fold; Fold Enrichment relative to AAV9, Liver RNA (NHP) [1, 8]: 0.000 fold; Fold Enrichment relative to AAV9, Muscle (NHP) [1, 9]: 0.000 fold; Fold Enrichment relative to AAV9, Brain (Mouse) [2, 10]: 67.651 fold
3 | KTINGGGSPHSKAQTQQI | 92.345 | 0.000 | 0.000 | 0.023 | 0.000 | 0.000 | 54.199 | Fold Enrichment relative to AAV9, DRG (NHP) [1, 4]: 0.000 fold; Fold Enrichment relative to AAV9, Brain (NHP) [1, 5]: 92.345 fold; Fold Enrichment relative to AAV9, Heart (NHP) [1, 6]: 0.000 fold; Fold Enrichment relative to AAV9, Liver DNA (NHP) [1, 7]: 0.023 fold; Fold Enrichment relative to AAV9, Liver RNA (NHP) [1, 8]: 0.000 fold; Fold Enrichment relative to AAV9, Muscle (NHP) [1, 9]: 0.000 fold; Fold Enrichment relative to AAV9, Brain (Mouse) [2, 10]: 54.199 fold
4 | KTINGGGSPHSKAQYQHT | – | – | – | – | – | – | – | Fold Enrichment relative to AAV9, Brain (NHP) [1, 3]: 54.188 fold; Fold Enrichment relative to AAV9, DRG (NHP) ([1]; NHP DRG): 0.000 fold; Fold Enrichment relative to AAV9, Heart (NHP) ([1]; NHP heart): 0.000 fold; Fold Enrichment relative to AAV9, Liver DNA (NHP) ([1]; NHP liver, DNA): 0.223 fold; Fold Enrichment relative to AAV9, Liver RNA (NHP) ([1]; NHP liver, RNA): 0.000 fold; Fold Enrichment relative to AAV9, Muscle (NHP) ([1]; NHP muscle): 0.000 fold; Fold Enrichment relative to AAV9, Brain (Mouse) ([2]; mouse brain): 82.256 fold
5 | KTINGGGSPHSKSQNQHT | – | – | – | – | – | – | – | Fold Enrichment relative to AAV9, DRG (NHP) [1, 4]: 0.000 fold; Fold Enrichment relative to AAV9, Brain (NHP) [1, 5]: 67.773 fold; Fold Enrichment relative to AAV9, Heart (NHP) [1, 6]: 0.057 fold; Fold Enrichment relative to AAV9, Liver DNA (NHP) [1, 7]: 0.220 fold; Fold Enrichment relative to AAV9, Liver RNA (NHP) [1, 8]: 0.000 fold; Fold Enrichment relative to AAV9, Muscle (NHP) [1, 9]: 0.000 fold; Fold Enrichment relative to AAV9, Brain (Mouse) [2, 10]: 100.748 fold
6 | KTINGGGSPHSKSQNQLT | 82.231 | 0.000 | 0.070 | 0.498 | 0.000 | 0.000 | 126.986 | Fold Enrichment relative to AAV9, DRG (NHP) [1, 4]: 0.000 fold; Fold Enrichment relative to AAV9, Brain (NHP) [1, 5]: 82.231 fold; Fold Enrichment relative to AAV9, Heart (NHP) [1, 6]: 0.070 fold; Fold Enrichment relative to AAV9, Liver DNA (NHP) [1, 7]: 0.498 fold; Fold Enrichment relative to AAV9, Liver RNA (NHP) [1, 8]: 0.000 fold; Fold Enrichment relative to AAV9, Muscle (NHP) [1, 9]: 0.000 fold; Fold Enrichment relative to AAV9, Brain (Mouse) [2, 10]: 126.986 fold
7 | KTINGGGSPHSKSQNRQT | – | – | – | – | – | – | – | Fold Enrichment relative to AAV9, Brain (NHP) [1, 3]: 51.017 fold; Fold Enrichment relative to AAV9, DRG (NHP) ([1]; NHP DRG): 0.000 fold; Fold Enrichment relative to AAV9, Heart (NHP) ([1]; NHP heart): 0.000 fold; Fold Enrichment relative to AAV9, Liver DNA (NHP) ([1]; NHP liver, DNA): 0.421 fold; Fold Enrichment relative to AAV9, Liver RNA (NHP) ([1]; NHP liver, RNA): 0.000 fold; Fold Enrichment relative to AAV9, Muscle (NHP) ([1]; NHP muscle): 0.000 fold; Fold Enrichment relative to AAV9, Brain (Mouse) ([2]; mouse brain): 149.370 fold
8 | KTINGHDSPHKIGLDQQT | 165.627 | 0.000 | 0.000 | 0.000 | 1.942 | 0.000 | 5.469 | –
9 | KTINGHDSPHKIGQNQHA | 77.321 | 0.000 | 18.836 | 0.132 | 0.220 | 0.028 | 7.578 | –
10 | KTINGHDSPHKSAQNYQT | 130.375 | 0.000 | 0.124 | 0.123 | 0.097 | 0.000 | 19.443 | –
11 | KTINGHDSPHKSGQLVIT | 76.781 | 0.089 | 0.064 | 0.475 | 0.338 | 0.000 | 11.323 | –
12 | KTINGHDSPHKSGQNKLE | 76.204 | 0.000 | 1.430 | 0.031 | 0.015 | 0.000 | 12.419 | –
13 | KTINGHDSPHKSGQSKQA | 101.460 | 0.000 | 0.222 | 0.114 | 0.185 | 0.000 | 7.510 | –
14 | KTINGHDSPHKSGQSVPT | 77.840 | 0.000 | 0.003 | 0.061 | 0.136 | 0.000 | 6.768 | –
15 | KTINGHDSPHKSGQSVQT | 75.748 | 0.010 | 6.808 | 0.058 | 0.165 | 0.000 | 9.321 | –
16 | KTINGHDSPHKSGRTQET | 81.599 | 0.000 | 0.062 | 0.137 | 0.000 | 0.000 | 7.270 | –
17 | KTINGHDSPHKSNAWQQT | 84.825 | 0.000 | 0.016 | 0.132 | 0.000 | 0.000 | 15.788 | –
